Source: US10807968B2, “Substituted 2-(het)arylimidazolylcarboxyamides as pesticides” (Bayer CropScience Aktiengesellschaft, priority 2016, dated 2020)
Where two headings read alike, the source gives them in different places.

Experiments:
Myzus persicae [1] = test: Myzus persicae - spray test (MYZUPE), comparison with prior art; type: in vivo; conditions: read-out: % efficacy dat
Protocol: Myzus persicae—Spray Test (MYZUPE)
Solvent: 78.0 parts by weight of acetone • • 1.5 parts by weight of dimethylformamide
(§1) Emulsifier: alkylaryl polyglycol ether
To produce a suitable preparation of active compound, 1 part by weight of active compound is dissolved using the specified parts by weight of solvent and made up with water containing an emulsifier concentration of 1000 ppm until the desired concentration is attained. To produce further test concentrations, the formulation is diluted with emulsifier-containing water.
Discs of Chinese cabbage leaves (Brassica pekinensis) infested by all stages of the green peach aphid (Myzus persicae) are sprayed with an active compound preparation of the desired concentration.
After the desired period of time, the efficacy in % is determined. 100% means that all the aphids have been killed; 0% means that no aphids have been killed.

Myzus persicae [2] = test: Myzus persicae - oral test (MYZUPE O), comparison with prior art; type: in vivo; conditions: 120 h, read-out: % efficacy dat
Protocol: Myzus persicae—Oral Test (MYZUPE O)
(§2) Solvent: 100 parts by weight of acetone
To produce a suitable preparation of active compound, 1 part by weight of active compound is dissolved using the specified parts by weight of solvent and made up with water until the desired concentration is attained.
50 μl of the active compound preparation are transferred into microtitre plates and made up to a final volume of 200 μl with 150 μl of IPL41 insect medium (33%+15% sugar). Subsequently, the plates are sealed with parafilm, which a mixed population of green peach aphids (Myzus persicae) within a second microtitre plate is able to puncture and imbibe the solution through it.
After 5 or 6 days (dat), the efficacy in % is determined. 100% means that all the aphids have been killed; 0% means that no aphids have been killed.

[3] = log P determination by HPLC on reversed-phase (C18) columns, OECD Guideline 117; type: physicochemical; conditions: for chromatographic logP: reversed-phase (C18) HPLC column
Protocol: The log P values were determined in accordance with OECD Guideline 117 (EC Directive 92/69/EEC) by HPLC (high-performance liquid chromatography) using reversed-phase (RP) columns (C18), by the following methods:
[a] The LC-MS determination in the acidic range was carried out at pH 2.7 with 0.1% aqueous formic acid and acetonitrile (contains 0.1% formic acid) as mobile phases; linear gradient from 10% acetonitrile to 95% acetonitrile.
[b] LC-MS determination in the neutral range was carried out at pH 7.8 with 0.001 molar aqueous ammonium hydrogencarbonate solution and acetonitrile as mobile phases; linear gradient from 10% acetonitrile to 95% acetonitrile.

Myzus persicae [4] = test: Myzus persicae - spray test (Chinese cabbage leaf discs); type: in vivo; conditions: 500 g/ha, after 6 days; for pest or weed control at 500 g/ha: Myzus persicae, foliar, 144 h, read-out: efficacy in % (aphids killed)
Protocol: Myzus persicae—Spray Test
Solvent: 78 parts by weight of acetone • • 1.5 parts by weight of dimethylformamide
as §1
To produce a suitable preparation of active compound, 1 part by weight of active compound is dissolved using the specified parts by weight of solvent and made up with water containing an emulsi fier concentration of 1000 ppm until the desired concentration is attained. To produce further test concentrations, the formulation is diluted with emulsifier-containing water.
Discs of Chinese cabbage leaves (Brassica pekinensis) infested by all stages of the green peach aphid (Myzus persicae) are sprayed with an active compound formulation of the desired concentration.
After 6 days, the efficacy in % is determined. 100% means that all the aphids have been killed; 0% means that no aphids have been killed.

Myzus persicae [5] = test: Myzus persicae - oral test; type: in vivo; conditions: after 5 days; for pest or weed control at 20 ppm: Myzus persicae, 120 h, read-out: efficacy in % (aphids killed); for efficacy in % (aphids killed): 20 ppm
Protocol: as §2
Subsequently, the plates are sealed with parafilm, which a mixed population of green peach aphids (Myzus persicae) within a second microtitre plate is able to puncture and imbibe the solution through it.
After 5 days, the efficacy in % is determined. 100% means that all the aphids have been killed; 0% means that no aphids have been killed.

Myzus persicae [6] = test: Myzus persicae - spray test (bell pepper plants); type: in vivo; conditions: 20 ppm, after 6 days
Protocol: Myzus persicae—Spray Test Solvent: 14 parts by weight of dimethylformamide Emulsifier: alkylaryl polyglycol ether […] To produce further test concentrations, the formulation is diluted with emulsifier-containing water. If the addition of ammonium salts or/and penetrants is required, these are each added in a concentration of 1000 ppm to the formulation solution. Bell pepper plants (Capsicum annuum) severely infested with the green peach aphid (Myzus persicae) are treated by spraying with the active compound formulation in the desired concentration.

[7] = 144 h, MYZUPE, 100 g ai/ha, 6 dat
[8] = pH 2.7, HPLC, acidic range pH 2.7, 0.1% aqueous formic acid/acetonitrile, read-out: logp-acidic
[9] = pH 7.8, HPLC, neutral range pH 7.8, 0.001 molar aqueous ammonium hydrogencarbonate/acetonitrile, read-out: logp-neutral
[10] = HPLC, acidic range pH 2.7, 0.1% aqueous formic acid/acetonitrile
[11] = 120 h, MYZUPE, 100 g ai/ha, 5 dat

Row | SMILES | Emax at 4 ppm (Myzus persicae [2]; MYZUPE O, 4 ppm, 5 dat) [%] | chromatographic logP [3, 8] | chromatographic logP [3, 9] | pest or weed control at 500 g/ha (Myzus persicae [4]) [%] | pest or weed control at 20 ppm (Myzus persicae [5]) [%] | efficacy in % (aphids killed) (Myzus persicae [5]) [%] | logp-acidic ([3]; pH 2.7) | logp-neutral ([3]; pH 7.8) | efficacy in % (aphids killed) (Myzus persicae [4]) [%] | other results
1 | Cc1nc(C(=O)Nc2cccnc2)c[nH]1 [Comparative Ex. 1, reference compound] | 0 | – | – | – | – | – | – | – | – | Emax at 100 g/ha (Myzus persicae [1]; MYZUPE, 100 g ai/ha, 5/6 dat): 0%
2 | O=C(Nc1cccnc1)c1c[nH]cn1 [Comparative Ex. 2, reference compound] | 0 | – | – | – | – | – | – | – | – | Emax at 100 g/ha (Myzus persicae [1]; [7]): 0%
3 | CN(C(=O)c1cnc(-c2ncccn2)n1C)c1cccnc1 [Example 4] | 100 | 0.35 | 0.73 | 90 | 100 | – | – | – | – | Emax at 100 g/ha (Myzus persicae [1]; [7]): 90%
4 | CN(C(=O)c1cnc(-c2ccc(Cl)cc2Cl)n1C)c1cccnc1 [Example 12] | – | – | – | – | – | 100 | – | – | – | logp-acidic [3, 10]: 1.66; kill in % (aphids killed) (Myzus persicae [6]): 100%
5 | CN(C(=O)c1cnc(-c2ccc(C#N)c(C(F)(F)F)c2)n1C)c1cccnc1 [Example 16] | – | – | – | – | – | – | – | – | – | Emax at 100 g/ha (Myzus persicae [1]; 144 h): 90%; Emax at 4 ppm (Myzus persicae [2]): 100%
6 | CN(C(=O)c1cnc(-c2cncc(C#N)c2)n1C)c1cccnc1 [Example 64] | – | 0.75 | 0.98 | 90 | 100 | – | – | – | – | Emax at 100 g/ha (Myzus persicae [1]; 120 h): 90%; Emax at 4 ppm (Myzus persicae [2]): 100%
7 | CN(C)c1ncc(-c2ncc(C(=O)N(C)c3cccnc3)n2C)cc1C#N [Example 65] | 100 | 1.1 | 1.5 | 100 | 100 | – | – | – | – | Emax at 100 g/ha (Myzus persicae [1]; [11]): 90%
8 | COc1ncc(-c2ncc(C(=O)N(C)c3cccnc3)n2C)cc1C#N [Example 68] | 100 | 1.2 | 1.44 | 100 | 100 | – | – | – | – | Emax at 100 g/ha (Myzus persicae [1]; [11]): 100%
9 | COc1cccc(-c2ncc(C(=O)N(C)c3cccnc3)n2C)n1 [Example 78] | 100 | 1.23 | 1.6 | 90 | 100 | – | – | – | – | Emax at 100 g/ha (Myzus persicae [1]; [11]): 70%
10 | COc1ccc(-c2ncc(C(=O)N(C)c3cccnc3)n2C)c(OC)n1 [Example 81] | 70 | 0.89 | 1.69 | 100 | 100 | – | – | – | – | Emax at 100 g/ha (Myzus persicae [1]; [11]): 70%
11 | COc1ncc(Cl)cc1-c1ncc(C(=O)N(C)c2cccnc2)n1C [Example 87] | 100 | 1.35 | 1.64 | 100 | 100 | – | – | – | – | Emax at 100 g/ha (Myzus persicae [1]; [11]): 90%
12 | CCOc1ncccc1-c1ncc(C(=O)N(C)c2cccnc2)n1C [Example 92] | – | – | – | – | – | 100 | 0.8 | 1.43 | 90 | –
13 | COc1cc(-c2ncc(C(=O)N(C)c3cccnc3)n2C)cnc1OC [Example 93] | – | – | – | – | – | 100 | 0.66 | 1.28 | 90 | –
14 | COc1cc(-c2ncc(C(=O)N(C)c3cccnc3)n2C)ccn1 [Example 94] | – | – | – | – | – | 100 | 1 | 1.26 | 90 | –
15 | COc1ncc(-c2ncc(C(=O)N(C)c3cccnc3)n2C)cc1C(F)(F)F [Example 95] | – | – | – | – | – | 100 | 1.75 | 2 | 100 | –
16 | COc1cc(-c2ncc(C(=O)N(C)c3cccnc3)n2C)cc(OC)n1 [Example 97] | – | – | – | – | – | 100 | 1.37 | 1.67 | 100 | –
17 | COc1cc(-c2ncc(C(=O)N(C)c3cccnc3)n2C)cc(C(F)(F)F)n1 [Example 99] | 100 | 2.05 | 2.23 | 90 | 100 | – | – | – | – | Emax at 100 g/ha (Myzus persicae [1]; [11]): 70%
18 | COc1cc(C#N)cc(-c2ncc(C(=O)N(C)c3cccnc3)n2C)c1 [Example 100] | – | – | – | – | – | 100 | – | – | 90 | logp-acidic [3, 10]: 1.34; logp-neutral ([3]; HPLC, neutral range pH 7.8, 0.001 molar aqueous ammonium hydrogencarbonate/acetonitrile): 1.57
19 | COc1ncc(F)cc1-c1ncc(C(=O)N(C)c2cccnc2)n1C [Example 101] | – | – | – | – | – | 100 | 0.91 | 1.38 | 100 | –
20 | CC(C)Oc1ccc(-c2ncc(C(=O)N(C)c3cccnc3)n2C)cn1 [Example 102] | – | – | – | – | – | 100 | 1.21 | 1.79 | 90 | –
21 | COc1ccc(-c2ncc(C(=O)N(C)c3cccnc3)n2C)cn1 [Example 103] | – | – | – | – | – | 100 | 0.58 | 1.25 | 100 | –
22 | CN(C(=O)c1cnc(-c2ccccc2OCC(N)=O)n1C)c1cccnc1 [Example 104] | – | – | – | – | – | 100 | 0.23 | 1.03 | 100 | –
23 | CN(C(=O)c1cnc(-c2ncccc2Cl)n1C)c1cccnc1 [Example 106] | – | – | – | – | – | 90 | 0.75 | 1.1 | 90 | –
